In patent publication US5804603A, “Synthesized β-adrenergic blockers derivatives of guaiacol” (National Science Council, priority 1995, dated 1998):
Like-named read-outs stand apart in the source and are kept apart here.

Key:
[1] = system: heart rate and blood pressure; test: Heart rate and blood pressure changes of rats induced by guaiacoxypropanolamines; type: in vivo; conditions: 1.0 mg/kg iv, means ± SE (n = 8)
[2] = target: T1, Isolated Guinea Pig Atria (Cavia porcellus, UniProt H0W3H1); test: pA2 on isolated guinea pig atria; type: cell-based; conditions: for Kb / pA2, positive chronotropic / pA2, positive inotropic: isolated guinea pig atria; for Potency ratio (PR), positive chronotropic / Potency ratio (PR), positive inotropic: with respect to propranolol
T1 construct: Isolated Guinea Pig Atria; from tissue; host or cells: guinea pig atria (isolated organ)
T1 sequence (H0W3H1 1-470): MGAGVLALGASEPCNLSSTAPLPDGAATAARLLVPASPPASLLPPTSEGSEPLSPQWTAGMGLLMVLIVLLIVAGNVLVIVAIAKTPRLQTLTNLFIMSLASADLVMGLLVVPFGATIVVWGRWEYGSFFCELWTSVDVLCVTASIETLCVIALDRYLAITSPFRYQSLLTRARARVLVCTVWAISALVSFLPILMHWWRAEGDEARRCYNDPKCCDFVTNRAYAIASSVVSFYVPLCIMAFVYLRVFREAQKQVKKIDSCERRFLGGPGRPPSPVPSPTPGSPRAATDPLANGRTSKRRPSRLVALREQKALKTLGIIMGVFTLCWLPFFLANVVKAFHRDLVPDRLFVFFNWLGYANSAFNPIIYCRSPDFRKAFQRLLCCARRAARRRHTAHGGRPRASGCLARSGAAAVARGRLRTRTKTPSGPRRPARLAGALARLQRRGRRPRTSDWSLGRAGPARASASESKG
Text: The determination of the pA2 is made from experiments in which a fixed concentration of the antagonist is used along with graded concentrations of an agonist acting on the same receptor. The presence of the antagonist shifts the agonist dose-response curve to the right.

[3] = read-out: pA2, positive chronotropic (converted)
[4] = read-out: pA2, positive inotropic (converted)

Kb [2, 3] [nM]	Kb [2, 4] [nM]	Potency ratio (PR), positive chronotropic [2]	Potency ratio (PR), positive inotropic [2]	pA2, positive chronotropic [2]	pA2, positive inotropic [2]	Compound	change in BP ([1]; 5 min after dosing) [mmHg]	change in HR ([1]; 5 min after dosing) [beats/min]	change in BP ([1]; 10 min after dosing) [mmHg]	change in HR ([1]; 10 min after dosing) [beats/min]	change in BP ([1]; 15 min after dosing) [mmHg]	change in HR ([1]; 15 min after dosing) [beats/min]	change in BP ([1]; 30 min after dosing) [mmHg]	change in HR ([1]; 30 min after dosing) [beats/min]	change in BP ([1]; 60 min after dosing) [mmHg]	change in HR ([1]; 60 min after dosing) [beats/min]
						CCCCCCCCC(=O)NCc1ccc(OCC(O)CNC2CC2)c(OC)c1 (stereo not shown) [NH-c-C3 H5, N-[4-o-(2-hydroxy-3-(cyclopropylamino)propoxy)-3-methoxybenzyl]-nonamide]	-0.11 ± 1.09	-47.67 ± 8.88	3.11 ± 2.78	-38.89 ± 9.47	3.89 ± 2.92	-23.67 ± 10.01	3.67 ± 4.10	-11.89 ± 8.73	2.22 ± 2.32	-2.67 ± 4.14
						CCCCCCCCC(=O)NCc1ccc(OCC(O)CNC2CCCCC2)c(OC)c1 (stereo not shown) [NH-c-C6 H11, N-[4-o-(2-hydroxy-3-(cyclohexylamino)propoxy)-3-methoxybenzyl]-nonamide]	-4.11 ± 2.89	-32.33 ± 15.44	-4.22 ± 2.29	-28.44 ± 16.54	-3.67 ± 2.39	-11.67 ± 9.26	1.33 ± 2.69	-1.78 ± 8.96	0.67 ± 2.45	2.78 ± 9.64
17	8.51	0.45	0.45			CCCCCCCCC(=O)NCc1ccc(OCC(O)CNC(C)C)c(OC)c1 (stereo not shown) [NH-i-C3 H7, N-[4-o-(2-hydroxy-3-(isopropylamino)propoxy)-3-methoxybenzyl]-nonamide]	-0.44 ± 2.05	-50.22 ± 7.29	-1.22 ± 2.29	-40.78 ± 7.64	-2.89 ± 2.03	-35.44 ± 7.32	-6.67 ± 2.51	-32.67 ± 9.24	-1.33 ± 0.98	-20.00 ± 6.15
117	26.9	0.06	0.14			CCCCCCCCC(=O)NCc1ccc(OCC(O)CNCC(C)C)c(OC)c1 (stereo not shown) [NH-i-C4 H9, N-[4-o-(2-hydroxy-3-(iso-butylamino)propoxy)-3-methoxybenzyl]-nonamide]	-2.75 ± 2.29	-39.88 ± 8.60	1.63 ± 2.07	-35.25 ± 7.98	1.63 ± 1.71	-27.13 ± 7.76	2.00 ± 1.86	4.13 ± 8.20	0.25 ± 1.91	3.13 ± 7.90
		0.05	0.21	6.79 ± 0.01	7.75 ± 0.07	CCCCCCCCC(=O)NCc1ccc(OCC(O)CNCCC)c(OC)c1 (stereo not shown) [NH-n-C3 H7, N-[4-o-(2-hydroxy-3-(n-propylamino)propoxy)-3-methoxybenzyl]-nonamide]	-1.78 ± 1.71	-42.56 ± 7.65	-2.56 ± 1.47	-35.33 ± 6.05	-3.11 ± 1.81	-32.00 ± 5.25	-2.44 ± 1.66	-14.11 ± 5.16	-0.56 ± 0.50	-6.89 ± 4.32
58.9	53.7	0.13	0.07			CCCCCCCCC(=O)NCc1ccc(OCC(O)CNCCCC)c(OC)c1 (stereo not shown) [NH-n-C4 H9, N-[4-o-(2-hydroxy-3-(n-butylamino)propoxy)-3-methoxybenzyl]-nonamide]	-0.22 ± 1.74	-40.00 ± 3.74	-1.22 ± 1.59	-33.78 ± 5.08	-1.22 ± 1.77	-26.22 ± 6.56	0.11 ± 1.54	-15.33 ± 5.24	3.33 ± 2.82	-3.67 ± 2.55
		0.12	0.14	7.19 ± 0.02	7.55 ± 0.04	CCCCCCCCC(=O)NCc1ccc(OCC(O)CNCCCCC)c(OC)c1 (stereo not shown) [NH-n-C5 H11, N-[4-o-(2-hydroxy-3-(n-pentylamino)propoxy)-3-methoxybenzyl]-nonamide]	-4.67 ± 1.71	-25.11 ± 5.81	-1.67 ± 1.87	-23.33 ± 2.41	-0.88 ± 3.00	-10.22 ± 2.38	3.67 ± 2.66	-5.78 ± 7.89	2.44 ± 1.96	-6.56 ± 4.38
933	66.1	0.01	0.06			CCCCCCCCC(=O)NCc1ccc(OCC(O)CNCCCCCC)c(OC)c1 (stereo not shown) [NH-n-C6 H13, N-[4-o-(2-hydroxy-3-(n-hexylamino)propoxy)-3-methoxybenzyl]-nonamide]	-2.22 ± 1.42	-35.56 ± 8.71	-2.89 ± 1.61	-24.11 ± 3.31	-4.44 ± 2.93	-14.89 ± 7.10	-2.11 ± 2.77	-12.67 ± 6.59	1.89 ± 1.13	-8.00 ± 5.64
120	22.4	0.07	0.17			CCCCCCCCC(=O)NCc1ccc(OCC(O)CNC(C)CC)c(OC)c1 (stereo not shown) [NH-s-C4 H9, N-[4-o-(2-hydroxy-3-(sec-butylamino)propoxy)-3-methoxybenzyl]-nonamide]	4.11 ± 2.76	-38.56 ± 11.30	4.89 ± 3.37	-35.44 ± 12.46	3.33 ± 3.74	-32.33 ± 11.96	-0.88 ± 3.11	-25.11 ± 9.49	1.22 ± 1.47	-9.56 ± 7.03
